Test [1] concerns the target Fibroblast growth factor receptor 4 (Homo sapiens, UniProt P22455). In words: Selectivity interaction (KinomeScan (DiscoverX)) EUB0001619a FGFR4. Particulars: at 1 µM.
Test [2] has as its target Serine/threonine-protein kinase 25 (Homo sapiens) (UniProt O00506). Briefly: Selectivity interaction (SelectScreen profiling (Invitrogen)) EUB0000607a STK25. The settings on record: at 2 µM.
For test [3], the target named is Fibroblast growth factor receptor 3 (Homo sapiens, UniProt P22607). Briefly: Selectivity interaction (Kinase screening (Nanosyn)) EUB0000604a FGFR3.
In test [4] the target is T1, Mitogen-activated protein kinase kinase kinase 15 (Homo sapiens) (UniProt Q6ZN16).
T1 sequence (whole entry): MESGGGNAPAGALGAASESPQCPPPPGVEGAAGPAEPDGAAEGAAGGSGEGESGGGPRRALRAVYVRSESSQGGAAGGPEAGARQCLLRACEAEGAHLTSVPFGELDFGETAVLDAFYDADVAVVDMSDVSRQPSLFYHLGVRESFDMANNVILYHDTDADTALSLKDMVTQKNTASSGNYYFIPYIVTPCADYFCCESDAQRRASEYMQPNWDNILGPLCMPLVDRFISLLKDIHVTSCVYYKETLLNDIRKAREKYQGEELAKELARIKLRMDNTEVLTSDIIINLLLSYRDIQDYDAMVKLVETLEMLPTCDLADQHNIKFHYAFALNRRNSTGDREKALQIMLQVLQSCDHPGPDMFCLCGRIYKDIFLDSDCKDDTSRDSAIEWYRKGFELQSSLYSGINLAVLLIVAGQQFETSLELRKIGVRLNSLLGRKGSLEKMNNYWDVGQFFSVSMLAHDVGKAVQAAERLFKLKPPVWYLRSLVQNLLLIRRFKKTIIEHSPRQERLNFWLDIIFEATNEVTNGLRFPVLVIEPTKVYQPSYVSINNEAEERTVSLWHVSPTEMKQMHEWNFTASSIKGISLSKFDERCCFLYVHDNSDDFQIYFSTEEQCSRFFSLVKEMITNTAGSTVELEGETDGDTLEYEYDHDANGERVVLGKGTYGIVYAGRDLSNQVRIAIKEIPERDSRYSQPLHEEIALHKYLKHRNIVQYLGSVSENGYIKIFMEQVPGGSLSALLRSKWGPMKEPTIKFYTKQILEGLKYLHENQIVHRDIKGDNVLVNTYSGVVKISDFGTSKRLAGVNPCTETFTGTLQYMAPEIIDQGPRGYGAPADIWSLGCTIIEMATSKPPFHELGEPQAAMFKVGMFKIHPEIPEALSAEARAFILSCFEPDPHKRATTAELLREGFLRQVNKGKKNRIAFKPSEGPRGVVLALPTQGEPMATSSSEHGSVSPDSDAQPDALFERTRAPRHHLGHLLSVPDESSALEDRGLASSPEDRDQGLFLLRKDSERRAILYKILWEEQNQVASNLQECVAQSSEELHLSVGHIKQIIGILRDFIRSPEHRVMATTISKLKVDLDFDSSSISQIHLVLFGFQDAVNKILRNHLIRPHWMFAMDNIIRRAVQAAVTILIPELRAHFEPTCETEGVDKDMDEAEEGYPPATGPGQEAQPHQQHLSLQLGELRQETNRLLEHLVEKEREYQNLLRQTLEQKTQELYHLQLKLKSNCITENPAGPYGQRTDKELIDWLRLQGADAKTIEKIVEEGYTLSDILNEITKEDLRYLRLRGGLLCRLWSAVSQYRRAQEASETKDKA
In words: Selectivity interaction (ActivX KiNativ screen (kinase selectivity in THP-1 cell lysates)) EUB0000639a MAP3K15. The settings on record: lysate. Format: subcellular.

The target in test [5] is Serine/threonine-protein kinase 38 (Homo sapiens) (UniProt Q15208). Briefly: (§1) Selectivity interaction (ActivX KiNativ screen (kinase selectivity in THP-1 cell lysates)) EUB0000639a STK38. The settings on record: lysate, at 0.04 µM. Format: subcellular.
The target is the same in test [6]. The description is as §1. Format: subcellular. The settings on record: lysate, at 0.01 µM.
For test [7], the target named is RAC-gamma serine/threonine-protein kinase (Homo sapiens, UniProt Q9Y243). Briefly: Selectivity interaction (Kinase panel (DSF assay)) EUB0001559a AKT3. For orientation: Differential scanning fluorimetry follows unfolding on heating by fluorescence.
The target in test [8] is T2, Serine/threonine-protein kinase Sgk3 (Homo sapiens) (UniProt Q96BR1).
T2 sequence (whole entry): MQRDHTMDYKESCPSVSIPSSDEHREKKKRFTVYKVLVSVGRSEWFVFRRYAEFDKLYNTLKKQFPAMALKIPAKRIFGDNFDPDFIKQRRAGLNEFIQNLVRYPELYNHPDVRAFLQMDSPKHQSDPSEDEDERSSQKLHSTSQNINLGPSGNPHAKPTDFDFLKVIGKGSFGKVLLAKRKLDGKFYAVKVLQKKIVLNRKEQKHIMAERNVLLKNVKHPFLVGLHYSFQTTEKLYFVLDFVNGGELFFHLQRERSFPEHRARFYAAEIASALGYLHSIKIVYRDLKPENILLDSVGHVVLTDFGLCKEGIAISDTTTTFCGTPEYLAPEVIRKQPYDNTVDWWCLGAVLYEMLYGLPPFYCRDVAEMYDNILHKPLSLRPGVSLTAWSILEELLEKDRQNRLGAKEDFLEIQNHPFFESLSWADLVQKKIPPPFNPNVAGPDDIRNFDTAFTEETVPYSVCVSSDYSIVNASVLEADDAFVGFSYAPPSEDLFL
Briefly: Selectivity interaction (KinomeScan (DiscoverX)) EUB0000045b SGK3.

In test [9] the target is Serine/threonine-protein kinase 32C (Homo sapiens) (UniProt Q86UX6). Briefly: Selectivity interaction (KinomeScan (DiscoverX)) EUB0000092b STK32C. The settings on record: at 10 µM.
The target in test [10] is T3, Serine/threonine-protein kinase RIO3 (Homo sapiens) (UniProt O14730).
T3 sequence (whole entry): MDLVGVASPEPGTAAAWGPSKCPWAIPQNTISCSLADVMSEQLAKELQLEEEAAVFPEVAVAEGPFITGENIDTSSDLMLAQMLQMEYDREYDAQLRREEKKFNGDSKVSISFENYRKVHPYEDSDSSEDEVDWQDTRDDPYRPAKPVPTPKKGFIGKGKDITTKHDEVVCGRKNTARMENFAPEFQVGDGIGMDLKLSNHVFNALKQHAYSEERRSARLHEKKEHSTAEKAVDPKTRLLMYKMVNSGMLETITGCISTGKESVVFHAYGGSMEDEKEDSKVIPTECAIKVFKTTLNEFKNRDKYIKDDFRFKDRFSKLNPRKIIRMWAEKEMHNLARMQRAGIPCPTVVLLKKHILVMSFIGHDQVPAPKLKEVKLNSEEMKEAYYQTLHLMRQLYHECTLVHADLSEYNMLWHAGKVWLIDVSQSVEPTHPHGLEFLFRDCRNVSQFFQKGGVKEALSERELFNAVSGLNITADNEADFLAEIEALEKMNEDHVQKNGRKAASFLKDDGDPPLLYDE
In words: Selectivity interaction (KinomeScan (DiscoverX)) EUB0001079a RIOK3. The settings on record: at 1 µM.

Chain of Serine/threonine-protein kinase 38 (Homo sapiens) (Q15208 2-465 limits assumed): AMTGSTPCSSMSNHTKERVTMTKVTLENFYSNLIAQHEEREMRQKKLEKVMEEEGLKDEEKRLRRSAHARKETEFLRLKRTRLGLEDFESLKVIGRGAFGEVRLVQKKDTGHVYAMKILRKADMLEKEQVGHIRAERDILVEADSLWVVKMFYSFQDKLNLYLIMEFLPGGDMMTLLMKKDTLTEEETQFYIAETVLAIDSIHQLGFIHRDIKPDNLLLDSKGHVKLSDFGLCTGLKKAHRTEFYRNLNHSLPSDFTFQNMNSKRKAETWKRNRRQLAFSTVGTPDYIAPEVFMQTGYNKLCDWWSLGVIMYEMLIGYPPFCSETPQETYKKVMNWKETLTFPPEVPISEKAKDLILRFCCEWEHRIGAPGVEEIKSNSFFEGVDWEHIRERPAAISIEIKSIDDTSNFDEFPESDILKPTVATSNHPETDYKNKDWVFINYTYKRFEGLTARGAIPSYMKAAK
Chain of Serine/threonine-protein kinase 25 (Homo sapiens) (O00506 whole entry, looked up): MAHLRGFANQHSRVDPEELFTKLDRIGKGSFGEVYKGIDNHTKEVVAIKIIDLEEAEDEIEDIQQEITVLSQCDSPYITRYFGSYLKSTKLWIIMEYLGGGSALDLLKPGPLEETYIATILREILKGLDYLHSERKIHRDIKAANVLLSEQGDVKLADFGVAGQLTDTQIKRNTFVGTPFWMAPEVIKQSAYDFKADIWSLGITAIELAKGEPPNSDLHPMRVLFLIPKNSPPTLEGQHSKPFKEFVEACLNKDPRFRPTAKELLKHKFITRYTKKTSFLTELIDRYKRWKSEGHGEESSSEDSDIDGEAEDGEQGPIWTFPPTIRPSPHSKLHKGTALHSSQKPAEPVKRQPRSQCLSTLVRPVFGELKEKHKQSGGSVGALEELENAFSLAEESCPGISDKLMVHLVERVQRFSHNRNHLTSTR
Chain of RAC-gamma serine/threonine-protein kinase (Q9Y243 whole entry): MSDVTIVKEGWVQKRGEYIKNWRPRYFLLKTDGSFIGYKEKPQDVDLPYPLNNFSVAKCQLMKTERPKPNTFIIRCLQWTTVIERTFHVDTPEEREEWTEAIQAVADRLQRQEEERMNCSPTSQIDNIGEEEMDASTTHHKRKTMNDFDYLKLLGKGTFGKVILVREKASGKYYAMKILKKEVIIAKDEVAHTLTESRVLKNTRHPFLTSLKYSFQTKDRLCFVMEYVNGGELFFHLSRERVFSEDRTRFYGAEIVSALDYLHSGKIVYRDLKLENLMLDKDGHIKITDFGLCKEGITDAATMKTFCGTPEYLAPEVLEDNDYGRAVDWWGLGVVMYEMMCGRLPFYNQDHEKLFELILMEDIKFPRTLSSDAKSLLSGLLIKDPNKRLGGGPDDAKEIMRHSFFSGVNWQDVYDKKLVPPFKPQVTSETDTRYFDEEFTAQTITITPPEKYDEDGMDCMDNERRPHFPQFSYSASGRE
Chain of Serine/threonine-protein kinase 32C (Homo sapiens) (Q86UX6 whole entry): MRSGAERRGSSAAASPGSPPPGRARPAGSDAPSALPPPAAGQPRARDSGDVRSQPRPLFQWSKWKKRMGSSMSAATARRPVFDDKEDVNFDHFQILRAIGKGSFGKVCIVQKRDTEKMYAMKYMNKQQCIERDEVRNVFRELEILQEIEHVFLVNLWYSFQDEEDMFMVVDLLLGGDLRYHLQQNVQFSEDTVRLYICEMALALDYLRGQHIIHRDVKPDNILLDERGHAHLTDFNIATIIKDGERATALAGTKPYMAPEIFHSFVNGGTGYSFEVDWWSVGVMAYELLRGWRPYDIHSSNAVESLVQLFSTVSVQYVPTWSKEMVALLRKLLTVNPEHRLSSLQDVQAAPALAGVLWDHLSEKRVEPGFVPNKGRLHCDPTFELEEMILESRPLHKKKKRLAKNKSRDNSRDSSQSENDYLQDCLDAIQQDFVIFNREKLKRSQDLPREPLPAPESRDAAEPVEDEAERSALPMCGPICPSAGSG
Chain of Fibroblast growth factor receptor 4 (P22455 22-802 limits assumed): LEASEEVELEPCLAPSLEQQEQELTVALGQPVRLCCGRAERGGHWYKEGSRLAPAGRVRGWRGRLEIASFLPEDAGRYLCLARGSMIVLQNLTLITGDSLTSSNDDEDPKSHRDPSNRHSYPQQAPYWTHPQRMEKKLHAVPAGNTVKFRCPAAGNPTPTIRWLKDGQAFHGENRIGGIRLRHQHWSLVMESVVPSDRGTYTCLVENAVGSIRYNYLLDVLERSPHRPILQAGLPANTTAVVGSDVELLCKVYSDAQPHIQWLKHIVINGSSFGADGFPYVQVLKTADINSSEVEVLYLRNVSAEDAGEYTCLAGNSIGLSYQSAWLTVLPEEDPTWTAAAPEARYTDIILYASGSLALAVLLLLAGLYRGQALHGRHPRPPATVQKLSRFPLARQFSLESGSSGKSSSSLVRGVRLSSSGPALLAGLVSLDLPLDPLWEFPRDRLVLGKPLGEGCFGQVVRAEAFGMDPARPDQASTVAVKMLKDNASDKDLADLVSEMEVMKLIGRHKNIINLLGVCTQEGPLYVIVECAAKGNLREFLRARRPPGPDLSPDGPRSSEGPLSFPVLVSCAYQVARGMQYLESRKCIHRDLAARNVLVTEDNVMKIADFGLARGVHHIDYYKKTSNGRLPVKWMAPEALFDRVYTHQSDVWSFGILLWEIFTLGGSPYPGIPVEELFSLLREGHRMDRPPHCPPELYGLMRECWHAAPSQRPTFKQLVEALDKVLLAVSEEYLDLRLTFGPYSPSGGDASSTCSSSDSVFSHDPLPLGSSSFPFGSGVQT
Chain of Fibroblast growth factor receptor 3 (P22607 23-806 limits assumed): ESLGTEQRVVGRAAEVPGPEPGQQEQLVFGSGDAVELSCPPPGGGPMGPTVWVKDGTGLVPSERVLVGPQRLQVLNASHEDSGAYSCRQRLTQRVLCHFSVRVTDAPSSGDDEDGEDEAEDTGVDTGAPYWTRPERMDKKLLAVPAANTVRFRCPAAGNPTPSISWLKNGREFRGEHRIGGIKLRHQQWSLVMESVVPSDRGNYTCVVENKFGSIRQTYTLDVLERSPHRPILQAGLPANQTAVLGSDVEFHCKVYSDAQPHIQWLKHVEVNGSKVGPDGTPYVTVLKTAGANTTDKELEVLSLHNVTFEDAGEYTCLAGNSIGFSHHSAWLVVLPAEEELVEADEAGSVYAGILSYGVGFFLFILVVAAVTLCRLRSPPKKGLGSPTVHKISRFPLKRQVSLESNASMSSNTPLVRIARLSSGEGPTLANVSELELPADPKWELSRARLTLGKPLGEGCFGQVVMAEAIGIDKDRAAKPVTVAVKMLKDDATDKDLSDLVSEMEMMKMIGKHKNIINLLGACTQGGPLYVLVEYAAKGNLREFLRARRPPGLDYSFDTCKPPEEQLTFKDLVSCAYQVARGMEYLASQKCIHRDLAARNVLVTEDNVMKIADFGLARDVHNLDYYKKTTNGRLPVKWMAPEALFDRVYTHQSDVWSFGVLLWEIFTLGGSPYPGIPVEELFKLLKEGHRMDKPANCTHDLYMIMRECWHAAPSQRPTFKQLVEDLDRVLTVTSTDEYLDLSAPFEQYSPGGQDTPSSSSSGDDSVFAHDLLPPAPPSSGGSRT

For the compound `N#Cc1cccc(-c2c[nH]c3ncnc(N4CCOCC4)c23)c1`, in test [1], the % of control is 74%.

With `CNC(=O)Nc1ccc(-c2nc(N3CC4CCC(C3)O4)c3cnn(C4CCC5(CC4)OCCO5)c3n2)cc1`, the % of inhibition in test [2] was 2%.

On to `Cc1cnc(Nc2ccc(F)cc2Cl)nc1-c1c[nH]c(C(=O)N[C@H](CO)c2cccc(Cl)c2)c1`, for which the % of inhibition in [3] came to 8%.

On to `CC[C@@H]1[C@H](F)C(=O)N[C@@H]1COc1nccc2cc(C(N)=O)c(OC)cc12` [ZIMLOVISERTIB], for which the % of inhibition in [4] (at 0.01 µM) is -12.1%; in [4] (at 0.04 µM) it was -3.2%; in [4] (at 0.2 µM) it was 0%; in [4] (at 1 µM), -6.5%; in test [4] (at 5 µM), -21.9%; in [5] it was -3.9%. In addition, in test [6], the % of inhibition was 1.5%.

Take `CN(C(=O)c1cnn2cccnc12)c1cc2c(cc1N1CCOCC1)C(=O)N(C[C@@H](F)C(C)(C)O)C2`: the dTM in test [7] turned out to be 0 K.

As to `C=CC(=O)Nc1cc(-n2c(=O)ccc3cnc4ccc(-c5ccc(NS(C)(=O)=O)cc5)cc4c32)ccc1C`, the % of control in [8] (at 1 µM) and in [8] (at 10 µM) was 100% throughout.

The compound `CCC(=O)N1CCN(c2ccc(-n3c(=O)ccc4cnc5ccc(-c6cnc7ccccc7c6)cc5c43)cc2C(F)(F)F)CC1` came in with a % of control in test [9] of 100%.

Regarding `Nc1cnc(N2CCc3cc(S(=O)(=O)Nc4c(F)cc(Cl)cc4F)cc(N4CCCC4=O)c32)nc1` [TP-020n], in test [10], the % of control was 100%.

Source of the values: ChEMBL document CHEMBL5465560, “Selectivity Literature for EUbOPEN Chemogenomic Library” (2024).
